In one test the test system is γ-secretase. Nature of the test: Screening for γ-secretase-modulating activity in SKN neuroblastoma cells carrying the APP "swedish mutation" (assay of Citron et al 1997). In kind it is cell-based. The protocol:
Screening was carried out using SKN neuroblastoma cells carrying the APP-"swedish mutation" (point mutation at 695 of APP) grown in DMEM/NUT-mix F12 (HAM) provided by Gibco (cat no. 31330-38) containing 5% Serum/Fe supplemented with 1% non-essential amino acids, 100 U/ml Pen/Strep. Cells were grown to near confluency. The screening was performed using the assay as described in Citron et al (1997), Nature Medicine. Vol 3: 67-72

Another test has as its target T1, cyclooxygenase-1 (Cox-1) (Ovis aries, UniProt P05979).
T1 construct: purchased Cayman Chemical Company 760111
T1 sequence (P05979 25-600): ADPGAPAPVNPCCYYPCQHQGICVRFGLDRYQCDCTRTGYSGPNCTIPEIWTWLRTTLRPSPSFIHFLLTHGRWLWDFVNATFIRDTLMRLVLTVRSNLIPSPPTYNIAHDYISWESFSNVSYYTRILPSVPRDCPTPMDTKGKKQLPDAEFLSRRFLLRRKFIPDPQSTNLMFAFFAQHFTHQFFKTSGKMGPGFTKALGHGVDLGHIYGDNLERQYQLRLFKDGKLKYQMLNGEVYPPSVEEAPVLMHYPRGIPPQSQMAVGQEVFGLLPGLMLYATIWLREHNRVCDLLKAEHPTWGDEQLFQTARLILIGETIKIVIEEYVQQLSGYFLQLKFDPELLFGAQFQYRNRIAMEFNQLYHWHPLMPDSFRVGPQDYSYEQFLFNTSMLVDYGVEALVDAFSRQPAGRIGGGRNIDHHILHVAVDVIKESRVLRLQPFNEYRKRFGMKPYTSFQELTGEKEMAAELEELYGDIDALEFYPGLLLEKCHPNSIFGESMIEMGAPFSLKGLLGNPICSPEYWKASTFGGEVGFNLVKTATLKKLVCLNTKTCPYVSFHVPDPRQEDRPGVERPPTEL
As to the kind of experiment: Colorimetric Cox inhibitor screening assay (Cayman Chemical, Cat. No. 760111). Type of test: biochemical. The conditions noted are these: at concentrations of up to 300uM. The protocol:
Inhibition of Cox-1 was determined using the Colorimetric Cox inhibitor screening assay provided by Cayman Chemical Company, Ann Arbor, MI, USA. (Cat. No. 760111) according to manufacturer's instructions. Exemplary studies were carried out using 2-(4'-trifluoromethyl-biphenyl-3-yl)-propionic acid.

By IC50 is commonly meant the concentration at which inhibition is half-maximal. For the compound `CC(C(=O)O)c1cccc(-c2ccc(Cl)cc2)c1` (stereo not drawn) [2-(4'-Chloro-biphenyl-3-yl)-propionic acid], the IC50 with γ-secretase was 41 µM.

In the test with γ-secretase, `CC(C(=O)O)c1cccc(-c2ccc(OC(F)(F)F)cc2)c1` (stereo not drawn) [2-(4'-Trifluoromethoxy-biphenyl-3-yl)-propionic acid] came in with a half-maximal inhibitory concentration (IC50) of 75 µM.

In turn, `O=C(O)Cc1cccc(-c2ccc(C(F)(F)F)cc2)c1` [(4'-Trifluoromethyl-biphenyl-3-yl)-acetic acid] displayed an IC50 with γ-secretase of 84 µM.

In turn, `C[C@@H](C(=O)O)c1ccc(-c2ccccc2)c(F)c1` [R-Flurbiprofen, reference compound] showed an IC50 in the test on γ-secretase of 247 µM.

In the case of `CC(C(=O)O)c1cccc(-c2ccc(C(F)(F)F)cc2)c1` (stereo not drawn) [2-(4'-Trifluoromethyl-biphenyl-3-yl)-propionic acid], the “effect on the Cox-1 activity” value at cyclooxygenase-1 (Cox-1) is “No significant effect”. Further, in the test on γ-secretase, half-maximal inhibition (IC50) was put at 24 µM.
